Assay results from US11033559B2, “Leukocyte infiltration promoting agent and antitumor immunostimulatory agent” (OSAKA UNIVERSITY, priority 2015, dated 2021).

How the values were obtained:
Format in all cases: in vivo
[1] = tested on: tumor blood vessels in LLC tumor-bearing mice; assay: Structural changes in tumor blood vessels after administration of S1P; conditions: 0.3 mg/kg via the tail vein once daily for three days, 24 hours after final administration
Protocol: S1P, a lysophospholipid other than LPA, was examined for the ability to induce vascular network formation in the tumor as with LPA. LLC cells were subcutaneously inoculated into C57BL/6 […] mice aged 8 weeks (females, SLC, Inc.) in the same manner as in Reference Example 1. S1P (Avanti Polar Lipids, Inc.) was dissolved in PBS at 10 mM, and the solution was stored at -30° C. as a stock solution. Before use, the frozen stock solution was thawed and homogenized with an ultrasonic cleaner (SND Co., Ltd.) for 1 minute. The SIP solution was diluted in PBS to an appropriate concentration for administration at a dose of 0.3 mg/kg in […] PBS. LLC-bearing mice on day 9 post-inoculation (animals with a tumor volume of 60 to 80 mm^3) were subjected to the experiment. The mice were divided into two groups: a control group and an S1P group (n=3 per group). After grouping, S1P was administered via the tail vein to the mice of the S1P group at a dose of 0.3 mg/kg in 100 μL PBS once daily for consecutive three days including the day of grouping. For the control group, PBS (100 μL) was administered via the tail vein to the mice instead of S1P. At 24 hours after the final administration, the tumors were harvested from the mice, and specimens of tumor blood vessels were prepared in the same manner as in Reference Example 1. […]

[2] = tested on: LLC cells; assay: Tumor growth inhibition, subcutaneous tumor formed from LLC cells; conditions: LLC-bearing mice; LPA 3 mg/kg i.p. once daily for seven days; 5-FU 100 mg/kg i.p. once weekly, 2 times
Protocol: LLC cells (1×10^6 cells in 100 μL PBS per animal) were subcutaneously injected into C57BL/6 NCrSlc mice aged 8 weeks (females) in the same manner as in Reference Example 1. An LPA solution for administration was prepared in the same manner as in Reference Example 1. 5-FU (Kyowa Hakko Kirin Co., Ltd.) was used as an anticancer drug. 5-FU was prepared as a solution in physiological saline (Otsuka Pharmaceutical Co., Ltd.). On day 7 post-inoculation, LLC-bearing mice that had developed a tumor with a volume of 30 to 50 mm^3 were selected and subjected to the experiment. The mice were assigned to three groups: a control group, a 5-FU group and an LPA group (n=3 per group). After grouping, LPA (3 mg/kg/100 μL), 5-FU (100 mg/kg/100 μL) or PBS (100 μL) was intraperitoneally administered to the mice. The administration of LPA or PBS was performed once daily for consecutive seven days. The administration of 5-FU was performed once weekly, 2 times in total (day 7 and day 14 post-inoculation). Tumor size was measured over time after the start of the administration. Tumor volume was calculated by the following formula: length×width×height×0.5.

[3] = tested on: tumor blood vessels in Lewis lung cancer (LLC) tumor-bearing mice; assay: Structural changes in tumor blood vessels (anti-CD31 immunostaining) after administration of LPA or LPA derivative; conditions: 3 mg/kg intraperitoneally once daily for five days, tumors harvested at 6 days, anti-CD31 staining
Protocol: LPA or an LPA derivative was administered to tumor-bearing mice generated by subcutaneous inoculation of a mouse cancer cell line, and post-administration structural changes in tumor blood vessels were examined.
Lewis lung cancer cells (hereinafter called LLC cells) were used as the mouse cancer cell line. LLC cells (1×10^6 cells in 100 μL PBS per animal) were subcutaneously injected into C57BL/6 NCrSlc mice aged 8 weeks (females, SLC, Inc.).
The LPA used was 18:1 LPA (Avanti Polar Lipids, Inc.). The LPA derivative used was VPC31144S (N-{(1S)-2-hydroxy-1-[(phosphonooxy)methyl]ethyl} (9Z) octade c-9-enamide). A 10 mM LPA stock solution and a 10 mM VPC31144S stock solution were separately prepared using 50% ethanol and stored at −30° C. Before use, each of the frozen stock solutions was thawed and homogenized with an ultrasonic cleaner (SND Co., Ltd.) for 1 minute. The solution was diluted in PBS to an appropriate concentration for administration at a dose of 3 mg/kg in 100 μL PBS.
On day 9 post-inoculation, LLC-bearing mice that had developed a tumor with a volume of 60 to 80 mm^3 (volume=length×width×height×0.5) were selected and subjected to the experiment. The mice were assigned to three groups: a control group, an LPA group and a VPC31144S group. Each group consisted of three mice. […]

Which “vascular network formation in the tumor” value [1] does the source give for `CCCCCCCCCCCCC/C=C/[C@@H](O)[C@@H](N)COP(=O)(O)O` [S1P, sphingosine-1-phosphate] here?
Its value is “induced vascular network formation in the tumor”.

How did the “inhibition of tumor growth (tumor volume) versus control group” value [2] turn out when `O=c1[nH]cc(F)c(=O)[nH]1` [5-FU, reference compound] was run?
The value was “remarkable inhibition of tumor growth”.

How did the “network structure of tumor blood vessels” value [3] turn out when `CCCCCCCC/C=C\CCCCCCCC(=O)N[C@@H](CO)COP(=O)(O)O` [VPC31144S, N-{(1S)-2-hydroxy-1-[(phosphonooxy)methyl]ethyl} (9Z) octade c-9-enamide] was run?
The value was “a continuous network of blood vessels was formed”.
